In patent publication US8487103B2 (Roche Palo Alto LLC, priority 2009, dated 2013):
Counter-ions that a name gives are not always drawn.

These molecules were tested against T1, HCV polymerase (NS5B570n-Con1) (Hepatitis C virus genotype 1b, UniProt Q9WMX2) (assay: HCV NS5B RNA Polymerase Activity).
T1 construct: contains a 21 amino acid deletion at the C-terminus relative to the full-length HCV polymerase; 6-histidine (N); made in house; host or cells: E. coli BL21(DE) pLysS, plasmid pET 17b
Format: biochemical, HCV Con1 strain
Experimental: The enzymatic activity of HCV polymerase (NS5B570n-Con1) was measured as the incorporation of radiolabeled nucleotide monophosphates into acid insoluble RNA products. Unincorporated radiolabeled substrate was removed by filtration and scintillant was added to the washed and dried filter plate containing radiolabeled RNA product. The amount of RNA product generated by NS5B570-Con1 at the end of the reaction was directly proportional to the amount of light emitted by the scintillant.
The N-terminal 6-histidine tagged HCV polymerase, derived from HCV Con1 strain, genotype 1b (NS5B570n-Con1) contains a 21 amino acid deletion at the C-terminus relative to the full-length HCV polymerase and was purified from E. coli strain BL21(DE) pLysS. The construct, containing the coding sequence of HCV NS5B Con1 (GenBank accession number AJ242654) was inserted into the plasmid construct pET 17b, downstream of a T7 promoter expression cassette and transformed into E. coli. A single colony was grown overnight as a starter culture and later used inoculate 10 L of LB media supplemented with 100 μg/mL ampicillin at 37° C. Protein expression was induced by the addition of 0.25 mM isopropyl-β-D-thiogalactopyranoside (IPTG) when optical density at […] of the culture was between 0.6 and 0.8 and cells were harvested after 16 to 18 h at 30° C. NS5B570n-Con1 was purified to homogeneity using a three-step protocol including subsequent column chromatography on Ni-NTA, SP-Sepharose HP and Superdex 75 resins.
Each 50 μL enzymatic reaction contained 20 nM RNA template derived from the complementary sequence of the Internal Ribosome Entry Site (cIRES), 20 nM NS5B570n-Con1 enzyme, 0.5 μCi of tritiated UTP (Perkin Elmer catalog no. TRK-412; specific activity: 30 to 60 Ci/mmol; stock solution concentration from 7.5×10^−5 M to 20.6×10^−6 M), 1 μM each ATP, CTP, and GTP, 40 mM Tris-HCl pH 8.0, 40 mM NaCl, 4 mM DTT (dithiothreitol), 4 mM MgCl2, and 5 μl of compound serial diluted in DMSO. Reaction mixtures were assembled in 96-well filter plates (cat #MADVN0B, Millipore Co.) and incubated for 2 h at 30° C. Reactions were stopped by addition of 10% final (v/v) trichloroacetic acid and incubated for 40 min at 4° C. Reactions were filtered, washed with 8 reaction volumes of 10% (v/v) trichloroacetic acetic acid, 4 reaction volumes of 70% (v/v) ethanol, air dried, and 25 μl of scintillant (Microscint 20, Perkin-Elmer) was added to each reaction well.
The amount of light emitted from the scintillant was converted to counts per minute (CPM) on a Topcount® plate reader (Perkin-Elmer, Energy Range: Low, Efficiency Mode Normal, Count Time: 1 min, Background Subtract: none, Cross talk reduction: Off).
Data was analyzed in Excel® (Microsoft) and ActivityBase® (Idbs®). The reaction in the absence of enzyme was used to determine the background signal, which was subtracted from the enzymatic reactions. Positive control reactions were performed in the absence of compound, from which the background corrected activity was set as 100% polymerase activity. All data was expressed as a percentage of the positive control. The compound concentration at which the enzyme-catalyzed rate of RNA synthesis was reduced by 50% (IC50) was calculated by fitting equation (i) to the data where“Y”
[formula] corresponds to the relative enzyme activity (in %), “% Min” is the residual relative activity at saturating compound concentration, “% Max” is the relative maximum enzymatic activity, “X” corresponds to the compound concentration, and “S” is the Hill coefficient (or slope).
`Cc1nc2c(-c3ccc[nH]c3=O)cc(C(C)(C)C)cc2nc1-c1ccc(NS(C)(=O)=O)cc1` [Compound I-10, N-{4-[7-tert-Butyl-3-methyl-5-(2-oxo-1,2-dihydro-pyridin-3-yl)-quinoxalin-2-yl]-phenyl}-methanesulfonamide] gave an IC50 of 21 nM.
For `COc1ccc(-c2cc(C(F)(F)F)c(OC)c3cc(-c4ccc(NS(C)(=O)=O)cc4)cnc23)c(=O)[nH]1` [Compound I-50], the IC50 was 0.6 nM.
`COc1c(C(F)(F)F)cc(-n2ccc(=O)[nH]c2=O)c2ncc(-c3ccc(NS(C)(=O)=O)cc3)cc12` [Compound I-51, N-{4-[8-(2,4-Dioxo-3,4-dihydro-2H-pyrimidin-1-yl)-5-methoxy-6-trifluoromethyl-quinolin-3-yl]-phenyl}-methanesulfonamide] showed an IC50 of 3.8 nM.
`COc1c(C(C)(C)C)cc(-c2ccc[nH]c2=O)c2ncc(Br)cc12` [Compound I-16] showed an IC50 of 59 nM.
`COc1c(C(C)(C)C)cc(-c2ccc[nH]c2=O)c2ncccc12` [Compound I-17] was tested, and the IC50 was 38 nM.
Work on `COc1ccc(-c2cc(C(C)(C)C)c(OC)c3cc(N4CC[C@H](CNS(C)(=O)=O)C4)ccc23)c(=O)[nH]1` [Compound I-36, N-{(S)-1-[7-tert-Butyl-8-methoxy-5-(6-methoxy-2-oxo-1,2-dihydro-pyridin-3-yl)-naphthalen-2-yl]-pyrrolidin-3-ylmethyl}-methanesulfonamide] yielded an IC50 of 8.4 nM.
With `COc1c(C(C)(C)C)cc(-c2cc(Cl)c[nH]c2=O)c2ncc(-c3ccc(NS(C)(=O)=O)cc3)cc12` [Compound I-15, N-{4-[6-tert-Butyl-8-(5-chloro-2-oxo-1,2-dihydro-pyridin-3-yl)-5-methoxy-quinolin-3-yl]-phenyl}-methanesulfonamide] the IC50 was 1 nM.
Work on `COc1c(C(C)(C)C)cc(-c2ccc(C)[nH]c2=O)c2ncc(-c3ccc(NS(C)(=O)=O)cc3)cc12` [Compound I-24] yielded an IC50 of 1 nM.
`COc1c(CC(F)(F)F)cc(N2CCC(=O)NC2=O)c2ncc(-c3ccc(NS(C)(=O)=O)cc3)cc12` [Compound I-30, N-{4-[8-(Dioxo-tetrahydro-pyrimidin-1-yl)-5-methoxy-6-(2,2,2-trifluoro-ethyl)-quinolin-3-yl]-phenyl}-methanesulfonamide] gave an IC50 of 17 nM.
Work on `COc1ccc(-c2cc(C(C)(C)C)cc3nc(-c4ccc(NS(C)(=O)=O)cc4F)cnc23)c(=O)[nH]1` [Compound I-11] yielded an IC50 of 1 nM.
Work on `CC(C)(C)c1cc(-c2ccc[nH]c2=O)c2ncc(-c3ccc(NS(C)(=O)=O)cc3F)nc2c1` [Compound I-8] yielded an IC50 of 4 nM.
`Br.[2H]C([2H])([2H])C(c1cc(-c2ccc(OC)[nH]c2=O)c2ncc(-c3ccc(NS(C)(=O)=O)cc3)cc2c1OC)(C([2H])([2H])[2H])C([2H])([2H])[2H]` [Compound I-32, N-{4-[6-[1,1-di(methyl-d3)ethyl-2,2,2-d3]-5-methoxy-8-(6-methoxy-2-oxo-1,2-dihydro-pyridin-3-yl)-quinolin-3-yl]-phenyl}-methanesulfonamide] gave an IC50 of 0.8 nM.
With `COc1c(C(C)(C)C)cc(-c2ccc(C)[nH]c2=O)c2ncc(N3CC[C@H](CNS(C)(=O)=O)C3)cc12` [Compound I-46] the IC50 was 0.9 nM.
Molecule `COc1c(C(C)(C)C)cc(N2CCC(=O)NC2=O)c2ncc(-c3ccc(NS(C)(=O)=O)cc3)cc12` [Compound I-28, N-{4-[6-tert-Butyl-8-(2,4-dioxo-tetrahydro-pyrimidin-1-yl)-5-methoxy-quinolin-3-yl]-phenyl}-methanesulfonamide] has an IC50 of 2 nM.
Work on `COc1c(C(C)(C)C)cc(-c2c[nH]c(=O)[nH]c2=O)c2ncc(-c3ccc(NS(C)(=O)=O)cc3)cc12` [Compound I-25, N-{4-[6-tert-Butyl-8-(2,4-dioxo-1,2,3,4-tetrahydro-pyrimidin-5-yl)-5-methoxy-quinolin-3-yl]-phenyl}-methanesulfonamide] yielded an IC50 of 0.4 nM.
`COc1c(C2(C(F)F)CC2)cc(-n2ccc(=O)[nH]c2=O)c2ncc(-c3ccc(NS(C)(=O)=O)cc3)cc12` [Compound I-39, N-{4-[6-(1-Difluoromethyl-cyclopropyl)-8-(2,4-dioxo-3,4-dihydro-2H-pyrimidin-1-yl)-5-methoxy-quinolin-3-yl]-phenyl}-methanesulfonamide] was tested, and the IC50 was 3.4 nM.
`COc1ccc(-c2cc(C(C)(C)C)cc3nc(-c4ccc(NS(C)(=O)=O)cc4Cl)cnc23)c(=O)[nH]1` [Compound I-9] was tested, and the IC50 was 1 nM.
With `COc1c(C(C)(C)C)cc(-c2ccc[nH]c2=O)c2ncc(N3CC(CNS(C)(=O)=O)C3)c(Cl)c12` [Compound I-22, N-{1-[6-tert-Butyl-4-chloro-5-methoxy-8-(2-oxo-1,2-dihydro-pyridin-3-yl)-quinolin-3-yl]-azetidin-3-ylmethyl}-methanesulfonamide] the IC50 was 44 nM.
With `COc1c(CC(F)(F)F)cc(-c2ccc(C)[nH]c2=O)c2ncc(-c3ccc(NS(C)(=O)=O)cc3)cc12` [Compound I-53, N-{4-[5-Methoxy-8-(6-methyl-2-oxo-1,2-dihydro-pyridin-3-yl)-6-(2,2,2-trifluoro-ethyl)-quinolin-3-yl]-phenyl}-methanesulfonamide hydrobomide salt] the IC50 was 9.6 nM.
In the case of `COc1c(C(C)(C)C)cc(-c2ccc[nH]c2=O)c2ncc(-c3ccc(N)nc3)cc12` [Compound I-43, 3-[3-(6-Amino-pyridin-3-yl)-6-tert-butyl-5-methoxy-quinolin-8-yl]-1H-pyridin-2-one], the IC50 is reported as 2.6 nM.
With `COc1c(C(C)(C)C)cc(-c2cc(F)c[nH]c2=O)c2ncc(-c3ccc(NS(C)(=O)=O)cc3)cc12` [Compound I-23] the IC50 was 1 nM.
In the case of `COc1ccc(-c2cc(C(C)(C)C)c(OC)c3cc(-c4ccc(NS(C)(=O)=O)cc4)cnc23)c(=O)[nH]1` [Compound I-34, N-{4-[6-tert-Butyl-5-methoxy-8-(6-methoxy-2-oxo-1,2-dihydro-pyridin-3-yl)-quinolin-3-yl]-phenyl}-methanesulfonamide], the IC50 is reported as 10 nM.
With `COc1c(CC(F)(F)F)cc(-n2ccc(=O)[nH]c2=O)c2ncc(-c3ccc(NS(C)(=O)=O)cc3)cc12` [Compound I-56, N-{4-[8-(2,4-Dioxo-3,4-dihydro-2H-pyrimidin-1-yl)-5-methoxy-6-(2,2,2-trifluoro-ethyl)-quinolin-3-yl]-phenyl}-methanesulfonamide] the IC50 was 38.5 nM.
With `COc1ccc(-c2cc(C3(C#N)CC3)c(OC)c3cc(-c4ccc(NS(C)(=O)=O)cc4)cnc23)c(=O)[nH]1` [Compound I-33] the IC50 was 3.8 nM.
For `COc1c(C2(C(F)F)CC2)cc(-c2ccc(C)[nH]c2=O)c2ncc(-c3ccc(NS(C)(=O)=O)cc3)cc12` [Compound I-37, N-{4-[6-(1-Difluoromethyl-cyclopropyl)-5-methoxy-8-(6-methyl-2-oxo-1,2-dihydro-pyridin-3-yl)-quinolin-3-yl]-phenyl}-methanesulfonamide], the IC50 was 9.9 nM.
Work on `COc1c(C(C)(C)C)cc(-c2ccc(C)[nH]c2=O)c2ncc(CCCCNS(C)(=O)=O)cc12` [Compound I-44, N-{4-[6-tert-Butyl-5-methoxy-8-(6-methyl-2-oxo-1,2-dihydro-pyridin-3-yl)-quinolin-3-yl]-butyl}-methanesulfonamide] yielded an IC50 of 12.2 nM.
Molecule `COc1c(C(C)(C)C)cc(-n2ccc(=O)[nH]c2=O)c2ncc(N3CC[C@H](CNS(C)(=O)=O)C3)cc12` [Compound I-52, N-{(S)-1-[6-tert-Butyl-8-(2,4-dioxo-3,4-dihydro-2H-pyrimidin-1-yl)-5-methoxy-quinolin-3-yl]-pyrrolidin-3-ylmethyl}-methanesulfonamide] has an IC50 of 3.5 nM.
For `COc1c(C(C)(C)C)cc(N2CCCNC2=O)c2ncc(-c3ccc(NS(C)(=O)=O)cc3)cc12` [Compound I-27, N-{4-[6-tert-Butyl-5-methoxy-8-(2-oxo-tetrahydro-pyrimidin-1-yl)-quinolin-3-yl]-phenyl}-methanesulfonamide], the IC50 was 0.7 nM.
